Laboratory results reported in article PMC3699650, “Structural Insights into the Abscisic Acid Stereospecificity by the ABA Receptors PYR/PYL/RCAR” (PLoS ONE, 2013).

How the values were obtained:
PYL9 (with HAB1) [1] = target: T1, PYL9 (with HAB1) (Arabidopsis thaliana, UniProt Q84MC7); experiment: HAB1 phosphatase inhibition assay; assay type: biochemical; conditions: Hepes pH 7.5, 30 °C
T1 construct: PYL9 from E. coli BL21(DE3), pET-28a or pGEX-4T-2 (TEV site), IMAC and SEC, monomer; HAB1 residues 169-511, GST cut by TEV; with Protein phosphatase 2C 16
T1 sequence (Q84MC7 1-187): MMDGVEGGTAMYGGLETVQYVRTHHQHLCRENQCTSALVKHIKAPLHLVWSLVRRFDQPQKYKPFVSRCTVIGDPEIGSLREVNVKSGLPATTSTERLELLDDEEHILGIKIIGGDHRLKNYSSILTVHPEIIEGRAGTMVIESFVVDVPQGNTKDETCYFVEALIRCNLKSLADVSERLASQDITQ
T1 sequence (Q9CAJ0 169-511 partner): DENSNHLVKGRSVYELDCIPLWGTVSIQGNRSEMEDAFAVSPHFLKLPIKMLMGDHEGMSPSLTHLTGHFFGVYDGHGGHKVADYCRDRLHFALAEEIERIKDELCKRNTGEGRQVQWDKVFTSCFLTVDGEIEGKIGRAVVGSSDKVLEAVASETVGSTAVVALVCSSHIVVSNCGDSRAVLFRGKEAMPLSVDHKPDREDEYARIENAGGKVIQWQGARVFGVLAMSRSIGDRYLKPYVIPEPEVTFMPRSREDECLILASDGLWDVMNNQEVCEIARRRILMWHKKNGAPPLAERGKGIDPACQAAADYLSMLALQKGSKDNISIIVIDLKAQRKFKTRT

PYL10 (with HAB1) = target: T2, PYL10 (with HAB1) (Arabidopsis thaliana, UniProt Q8H1R0); experiment: HAB1 phosphatase inhibition assay (phosphopeptide, molybdate); assay type: biochemical
T2 construct: PYL10 from E. coli BL21(DE3), pET-28a or pGEX-4T-2 (TEV site), IMAC and SEC; HAB1 residues 169-511, GST cut by TEV; with Protein phosphatase 2C 16
T2 sequence (Q8H1R0 1-183): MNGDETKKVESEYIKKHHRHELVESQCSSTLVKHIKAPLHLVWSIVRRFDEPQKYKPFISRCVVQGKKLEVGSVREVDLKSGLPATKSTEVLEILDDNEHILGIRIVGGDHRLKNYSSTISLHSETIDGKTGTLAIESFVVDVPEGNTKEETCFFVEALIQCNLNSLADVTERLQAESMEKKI
T2 sequence (Q9CAJ0 169-511 partner): T1 sequence (Q9CAJ0 169-511 partner)

PYL3 = target: T3, PYL3 (Arabidopsis thaliana, UniProt Q9SSM7); experiment: isothermal titration calorimetry; assay type: binding; conditions: 20 °C, 20 mM Tris-HCl pH 8.0, 150 mM NaCl; 0.3 mM (−)-ABA into 0.22 mM PYL3
T3 construct: apo mainly dimer
T3 sequence (Q9SSM7 1-209): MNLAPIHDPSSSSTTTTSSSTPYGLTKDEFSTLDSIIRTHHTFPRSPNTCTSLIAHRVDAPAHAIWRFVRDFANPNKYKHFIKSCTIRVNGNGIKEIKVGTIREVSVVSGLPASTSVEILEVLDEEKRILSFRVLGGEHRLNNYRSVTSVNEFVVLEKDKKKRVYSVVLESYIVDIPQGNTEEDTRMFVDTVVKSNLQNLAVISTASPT

PYL9 (with HAB1) [2] = target: T1, PYL9 (with HAB1); experiment: HAB1 phosphatase inhibition assay (phosphopeptide, molybdate); assay type: biochemical
PYL4 (with HAB1) = target: T4, PYL4 (with HAB1) (Arabidopsis thaliana, UniProt O80920); experiment: as above; assay type: biochemical
T4 construct: PYL4 from E. coli BL21(DE3), pET-28a or pGEX-4T-2 (TEV site), IMAC and SEC; HAB1 residues 169-511, GST cut by TEV; with Protein phosphatase 2C 16
T4 sequence (O80920 1-207): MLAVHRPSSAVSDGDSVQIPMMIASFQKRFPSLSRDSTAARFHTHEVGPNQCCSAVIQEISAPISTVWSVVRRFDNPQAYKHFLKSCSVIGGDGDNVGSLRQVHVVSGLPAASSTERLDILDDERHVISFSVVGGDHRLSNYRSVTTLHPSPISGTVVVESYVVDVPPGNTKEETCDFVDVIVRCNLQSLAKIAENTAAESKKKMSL
T4 sequence (Q9CAJ0 169-511 partner): T1 sequence (Q9CAJ0 169-511 partner)

PYL5 (with HAB1) = target: T5, PYL5 (with HAB1) (Arabidopsis thaliana, UniProt Q9FLB1); experiment: as above; assay type: biochemical
T5 construct: PYL5 from E. coli BL21(DE3), pET-28a or pGEX-4T-2 (TEV site), IMAC and SEC, monomer; HAB1 residues 169-511, GST cut by TEV; with Protein phosphatase 2C 16
T5 sequence (Q9FLB1 1-203): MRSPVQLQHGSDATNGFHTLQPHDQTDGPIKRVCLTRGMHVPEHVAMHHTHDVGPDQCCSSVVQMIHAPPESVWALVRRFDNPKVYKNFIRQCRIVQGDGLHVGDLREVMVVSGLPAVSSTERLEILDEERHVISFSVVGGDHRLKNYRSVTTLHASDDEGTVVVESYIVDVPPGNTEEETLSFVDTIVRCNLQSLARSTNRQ
T5 sequence (Q9CAJ0 169-511 partner): T1 sequence (Q9CAJ0 169-511 partner)

PYL1 (with HAB1) = target: T6, PYL1 (with HAB1) (Arabidopsis thaliana, UniProt Q8VZS8); experiment: as above; assay type: biochemical
T6 construct: PYL1 from E. coli BL21(DE3), pET-28a or pGEX-4T-2 (TEV site), IMAC and SEC; HAB1 residues 169-511, GST cut by TEV; with Protein phosphatase 2C 16
T6 sequence (Q8VZS8 2-221): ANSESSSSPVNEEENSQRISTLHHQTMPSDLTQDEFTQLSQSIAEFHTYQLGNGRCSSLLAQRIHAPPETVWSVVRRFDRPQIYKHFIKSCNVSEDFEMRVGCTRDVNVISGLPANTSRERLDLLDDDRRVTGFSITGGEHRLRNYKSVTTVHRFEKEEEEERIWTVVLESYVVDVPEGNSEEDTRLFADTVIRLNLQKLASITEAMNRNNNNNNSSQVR
T6 sequence (Q9CAJ0 169-511 partner): T1 sequence (Q9CAJ0 169-511 partner)

PYL8 (with HAB1) = target: T7, PYL8 (with HAB1) (Arabidopsis thaliana, UniProt Q9FGM1); experiment: as above; assay type: biochemical
T7 construct: PYL8 from E. coli BL21(DE3), pET-28a or pGEX-4T-2 (TEV site), IMAC and SEC; HAB1 residues 169-511, GST cut by TEV; with Protein phosphatase 2C 16
T7 sequence (Q9FGM1 1-188): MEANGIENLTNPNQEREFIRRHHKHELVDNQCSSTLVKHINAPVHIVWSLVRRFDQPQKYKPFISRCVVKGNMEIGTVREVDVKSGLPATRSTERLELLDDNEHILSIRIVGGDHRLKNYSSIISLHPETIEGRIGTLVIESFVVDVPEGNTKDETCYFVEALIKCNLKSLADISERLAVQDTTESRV
T7 sequence (Q9CAJ0 169-511 partner): T1 sequence (Q9CAJ0 169-511 partner)

PYL2 (with HAB1) = target: T8, PYL2 (with HAB1) (Arabidopsis thaliana, UniProt O80992); experiment: as above; assay type: biochemical
T8 construct: PYL2 from E. coli BL21(DE3), pET-28a or pGEX-4T-2 (TEV site), IMAC and SEC; HAB1 residues 169-511, GST cut by TEV; with Protein phosphatase 2C 16
T8 sequence (O80992 1-190): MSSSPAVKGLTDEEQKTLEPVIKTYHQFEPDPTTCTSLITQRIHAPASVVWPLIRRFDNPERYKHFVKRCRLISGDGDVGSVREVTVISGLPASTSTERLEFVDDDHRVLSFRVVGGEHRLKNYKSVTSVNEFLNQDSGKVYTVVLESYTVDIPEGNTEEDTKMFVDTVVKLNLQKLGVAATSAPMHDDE
T8 sequence (Q9CAJ0 169-511 partner): T1 sequence (Q9CAJ0 169-511 partner)

PYL6 (with HAB1) = target: T9, PYL6 (with HAB1) (Arabidopsis thaliana, UniProt Q8S8E3); experiment: as above; assay type: biochemical
T9 construct: PYL6 from E. coli BL21(DE3), pET-28a or pGEX-4T-2 (TEV site), IMAC and SEC; HAB1 residues 169-511, GST cut by TEV; with Protein phosphatase 2C 16
T9 sequence (Q8S8E3 1-215): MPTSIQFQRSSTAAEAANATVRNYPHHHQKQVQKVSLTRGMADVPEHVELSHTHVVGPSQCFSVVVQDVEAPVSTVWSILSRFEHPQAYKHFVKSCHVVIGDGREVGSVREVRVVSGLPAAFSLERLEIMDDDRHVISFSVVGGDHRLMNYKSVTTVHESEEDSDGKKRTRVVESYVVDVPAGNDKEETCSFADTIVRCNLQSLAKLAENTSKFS
T9 sequence (Q9CAJ0 169-511 partner): T1 sequence (Q9CAJ0 169-511 partner)

PYR1 (with HAB1) = target: T10, PYR1 (with HAB1) (Arabidopsis thaliana, UniProt O49686); experiment: as above; assay type: biochemical
T10 construct: PYR1 from E. coli BL21(DE3), pET-28a or pGEX-4T-2 (TEV site), IMAC and SEC; HAB1 residues 169-511, GST cut by TEV; with Protein phosphatase 2C 16
T10 sequence (O49686 1-191): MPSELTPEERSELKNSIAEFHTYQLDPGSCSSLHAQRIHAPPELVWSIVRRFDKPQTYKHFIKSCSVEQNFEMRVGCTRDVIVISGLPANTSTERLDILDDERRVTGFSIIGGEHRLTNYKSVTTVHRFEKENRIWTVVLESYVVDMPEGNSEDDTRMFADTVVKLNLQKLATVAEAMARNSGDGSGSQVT
T10 sequence (Q9CAJ0 169-511 partner): T1 sequence (Q9CAJ0 169-511 partner)

Compound	HAB1 phosphatase inhibition assay (PYL9 (with HAB1) [1])	IC50 (PYL10 (with HAB1))	binding affinity (PYL3)	IC50 (PYL9 (with HAB1) [2])	IC50 (PYL4 (with HAB1))	IC50 (PYL5 (with HAB1))	IC50 (PYL1 (with HAB1))	IC50 (PYL8 (with HAB1))	IC50 (PYL2 (with HAB1))	IC50 (PYL6 (with HAB1))	IC50 (PYR1 (with HAB1))
CC1=CC(=O)CC(C)(C)[C@@]1(O)/C=C/C(C)=C/C(=O)O [(+)-ABA]	PYL9 can inhibit HAB1 in the presence of (+)-ABA	–	–	–	–	–	–	–	–	–	–
CC1=CC(=O)CC(C)(C)[C@]1(O)/C=C/C(C)=C\C(=O)O [(−)-ABA]	–	15000 nM	ITC results showed that the binding affinity of (−)-ABA to PYL3 was less	> 10000 nM	480 nM	170 nM	3100 nM	1600 nM	2500 nM	470 nM	4500 nM
